# Measured values as given in ChEMBL document CHEMBL1208763, “Discovery of potent, selective, and orally bioavailable 3H-spiro[isobenzofuran-1,4'-piperidine] based melanocortin subtype-4 receptor agonists” (Bioorg Med Chem Lett, 2010).
# Assay: in vivo
# Conditions: Sprague-Dawley, rat, po, 4 mg/kg
row,SMILES,bioavailability
1,CC(C)(C#N)[C@H]1OC2(CCN(C(=O)[C@@H]3CN(C4CCOCC4)C[C@H]3c3ccc(F)cc3F)CC2)c2cc(F)c(Cl)cc21,23%
2,CC(=O)NC(C)(C)[C@H]1OC2(CCN(C(=O)[C@@H]3CN(C4CCOCC4)C[C@H]3c3ccc(F)cc3F)CC2)c2cc(Cl)c(C)cc21,26%
